Paper PMC11731258, “The structural basis for high-affinity c-di-GMP binding to the GSPII-B domain of the traffic ATPase PilF from Thermus thermophilus” (The Journal of Biological Chemistry, 2024)

Biological target: T1, PilF159-302 (GSPII-B domain) (Thermus thermophilus, UniProt Q5SLC9)
T1 sequence (Q5SLC9 159-302): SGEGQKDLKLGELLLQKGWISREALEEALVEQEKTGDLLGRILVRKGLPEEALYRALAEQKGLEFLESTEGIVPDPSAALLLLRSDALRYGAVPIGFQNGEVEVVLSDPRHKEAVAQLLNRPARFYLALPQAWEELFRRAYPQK
Assay: ITC binding to PilF159-302
Experimental: To assess the ligand-binding capabilities of the various PilF constructs, triplicates of ITC measurements were recorded for each construct. The measurements were carried out using a MicroCal ITC200 (Malvern Panalytical). […] All protein samples were extensively dialyzed against the sample buffer and the buffer used for dialysis was used to dilute protein and c-di-GMP samples in preparation for the ITC measurements. Each measurement was conducted using the following protocol. In total, 39.8 μl c-di-GMP were titrated to 270 μl protein in 20 separate injections in 180 s intervals with a stirring speed of 750 rpm. After an initial delay of 120 s, the first injection of 0.2 μl c-di-GMP with a duration of 0.4 s was followed by 19 injections of 2 μl with a duration of 4 s. During the measurement, the feedback mode was set to high and the reference power to 11 μcal s^−1. To optimize precision of the measurements, protein and c-di-GMP concentrations were adjusted to the binding capabilities of the respective constructs and ranged from 5 to 200 μM for protein and 50 to 2000 μM for c-di-GMP. All thermograms were processed using Origin 7.0 (OriginLab) using a one-site– or two-site–binding model dependent on the number of expected binding events.

O=c1[nH]cnc2c1ncn2[C@@H]1O[C@@H]2COP(=O)(O)O[C@H]3[C@@H](O)[C@H](n4cnc5c(=O)[nH]cnc54)O[C@@H]3COP(=O)(O)O[C@H]2[C@H]1O [c-di-IMP, cyclic dimeric inosine-monophosphate] gave a Kd of 60 ± 1 nM, an N (ITC, 20 °C) of 0.74 ± 0.03 and a ΔH (ITC, 20 °C) of -7.103 ± 0.234 kcal/mol. For the same compound, the ΔS (ITC, 20 °C) was 8.8 ± 0.8 cal/mol/deg.
